Reference: patent publication US10702530B2, “Screening method” (Hoffmann-La Roche Inc., priority 2013, dated 2020)

Experiments:
FoxM1B/C mRNA = experiment: Downregulation of FoxM1B/C mRNA by RT-qPCR in human fibroblasts; assay type: cell-based; settings: Fibroblast, 24 hours, Hill fit, read-out: EC50 for decline of FoxM1B/C mRNAs lacking exon 9
Method: (§1) FIGS. 1A, 1B and 1C. Induction of alternative splicing of FoxM1 towards FoxM1A in fibroblasts. Human fibroblasts were incubated with cpds. 1-4 at different doses for 24 hours, and changes in FoxM1A RNA (containing exon A2) and FoxM1B/C (lacking exon A2) mRNA expression were assessed by RT-qPCR. Dose response curves were fitted to a Hill binding equation to estimate the EC50. FIG. 1A., upregulation of FoxM1A mRNA; FIG. 1B., downregulation of FoxM1B/C mRNA; FIG. 1C., Correlation of EC50 values for FoxM1A upregulation and FoxM1B/C downregulation. Data represent means±SEM of 4 independent observations.
(§2) To investigate an effect on splicing of FoxM1, human fibroblasts were treated for 24 hours with cpds. 1-4 in dose response, and analysed by RT-qPCR for presence of mRNA including (FoxM1A) or excluding (FoxM1B/C) the Δ9 exon. The resulting dose response curves were fitted to a Hill binding equation. […] 1, 2, 3 and 4, respectively. […] 1, 2, 3 and 4, respectively.
(§3) Fibroblasts, at 10000 cells per cm^2 were treated with varying doses of compounds ([…]) for 24 hours. RNA extraction was performed as per instructions mentioned in the Ambion® Cells-to-CT™ Kits from Applied Biosystems®. RNA samples were frozen at −20° C. until further analysis. Relative expression levels of FoxM1A or FoxM1B/C along with GAPDH for internal control, was measured using one-step multiplex reverse transcription-polymerase chain reaction (RT-PCR). TaqMan® FAM probes were used for relative quantitation of FoxM1A or FoxM1B/C expression levels and TaqMan® VIC probes were used for relative quantitation of human GAPDH levels. The fidelity of the amplification methods was determined using the ΔΔCt relative quantification method for quantitative PCR.

FoxM1A mRNA = experiment: Upregulation of FoxM1A mRNA by RT-qPCR in human fibroblasts; assay type: cell-based; settings: Fibroblast, 24 hours, Hill fit, read-out: EC50 for increased expression of FoxM1A mRNA including exon 9
Method: as §1, §2, §3

human fibroblasts [1] = experiment: Micronuclei induction (MNT) in fibroblasts; assay type: cell-based; settings: dose response, 2% cut-off
Method: (§4) FIGS. 2A, 2B and 2C. Induction of proliferation arrest and cell death by cpds. Alternating FoxM1 splicing towards FoxM1A in fibroblasts. Human fibroblasts were incubated with cpds. 1-4 at different doses for 5 days (120 hours), and changes in cellular impedance (Cell Index) were assessed online. Data are expressed as delta Cell Index after normalization for the starting value of each well. Data at 72, 96 and 120 hour time points (see arrows) were averaged for quantification. FIG. 2A, Micronuclei induction (MNT) in fibroblasts with increasing doses of cpd. 1-4; FIG. 2B, Dose-dependent induction of cytotoxicity by cpds. 1-4. expressed as % of untreated control after 24 hours. A cut-off at 75% (ED75%, dashed line) defined the concentration at which a meaningful impact on proliferation and cell survival was observed. […] 1-4. expressed as % of untreated control. […]
(§5) For investigation of the effect of altered FoxM1 expression on micronucleus induction (MNT) and cell survival, human fibroblasts were treated for up to 120 hours with cpds. 1-4 in dose response, and MNT, cytotoxicity or Cell Index were assessed on the xCELLigence platform, monitoring proliferation rates and cell death online. To define a quantitative measure for cytotoxic effects, a 2% cut-off for MNT induction (FIG. 2A), a 75% cut-off for cell survival (EC75%), and a 75% cut-off was estimated (ED75%). […]

[2] = tested on: Human BT474 breast cancer cells; experiment: Western blot, actin protein in BT474 breast cancer cells; assay type: cell-based; settings: BT474, 10 μM
Method: (§6) Upregulation of FoxM1A protein correlates with cytotoxicity in breast cancer cells. Human BT474 breast cancer cells were treated with cpd. 2 at 10 μM for 1 or 2 days under proliferating conditions (in the presence of serum), and total protein extracts analyzed by SDS PAGE and Western Blot for FoxM1A and actin protein levels. To assess if increase in FoxM1A protein by alternative splicing of FoxM1 towards FoxM1A induces cell death in a cancer condition, human breast cancer cells (BT474) were treated to modulate FoxM1 expression, and FoxM1A protein levels were assessed at day 1 and 2 of treatment. On day 1 and 2 under control conditions, FoxM1A was detectable by Western Blot, but at low concentrations. Treatment with cpd. […] 2 at 10 μM, whereas FoxM1A levels were increased in the same samples by nearly 3-fold. When normalized to actin, FoxM1A protein levels increased by 28-fold by treatment with cpd. 2 at 10 μM. […] Data represent means±SEM of 3 independent observations. Statistical comparison was performed by one-way ANOVA followed by Dunnet's post-hoc test. *, p<0.05, ***, p<0.001.
(§7) Human myoblasts were acquired from ECACC, BT474 cells were obtained from ATCC, and were cultivated according to supplier protocols. […] Fluorescence was acquired with the Odyssey imaging system (Licor Biosciences), FoxM1A intensity was normalized for actin. Data were analyzed using GraphPad software.

human fibroblasts [3] = experiment: Cell Index (cellular impedance, xCELLigence) in fibroblasts; assay type: cell-based; settings: up to 120 hours, 75% cut-off
Method: as §4, §5

FoxM1A protein [4] = experiment: Western blot, FoxM1A protein in BT474 breast cancer cells; assay type: cell-based, human; settings: BT474, 10 μM
Method: as §6
Human myoblasts were acquired from ECACC, BT474 cells were obtained from ATCC, and were cultivated according to supplier protocols. For experimental purpose, human myoblasts were cultivated for 5 days and were treated with varying doses of compounds (0.1-10 μM). BT474 cells were cultivated for up to 2 days and treated with compounds at 10 μM. For Western blot analyses, myoblast cells treated over 5 days or BT474 cells treated for 2 days were lysed in boiling Laemmli buffer (Bio-Rad) containing 100 mM dithiothreitol. SDS PAGE blots were probed with rabbit-anti FoxM1 antibody (Cell Signaling Technology, 1:1000), goat anti-Actin (Santa Cruz Biotechnology, 1:20000) and Alexa680/800 secondary antibodies (Molecular Probes, 1:10,000). Fluorescence was acquired with the Odyssey imaging system (Licor Biosciences), FoxM1A intensity was normalized for actin. Data were analyzed using GraphPad software.

human fibroblasts [5] = experiment: Cytotoxicity in fibroblasts; assay type: cell-based; settings: dose response, 75% cut-off, 24 hours
Method: as §4, §5

human primary myoblasts [6] = experiment: Western blot, actin protein (surrogate for cell number) in proliferating human myoblasts; assay type: cell-based; settings: proliferating conditions (serum), 5 days, doses up to 10 μM
Method: (§8) FIGS. 5A, 5B and 5C. Upregulation of FoxM1A protein correlates with cytotoxicity in myoblasts. Human myoblasts were treated with cpd. 3 (0.1, 1 and 10 μM) for 5 days under proliferating conditions (in the presence of serum), and total protein extracts analyzed by SDS PAGE and Western Blot for FoxM1A and actin protein levels. FIG. 5A, FoxM1A and actin Western blots from samples treated without (control) or with cpd. 3 (0.1, 1 and 10 μM); FIG. 5B, Protein levels of actin (surrogate for cell number); FIG. 5C, FoxM1A/actin ratio. Data represent means±SEM of 3 independent observations. Statistical comparison was performed by one-way ANOVA followed by Dunnet's post-hoc test. *, p<0.05, **, p<0.01, ***, p<0.001.
(§9) To assess if alternative splicing of FoxM1 towards FoxM1A results in meaningful changes in the protein levels and cell death, human primary myoblasts were treated under proliferating conditions to modulate FoxM1 expression and evaluate its consequence. Under proliferative conditions, FoxM1A was detectable by Western Blot, but at low concentrations […]. Treatment with cpd. […]
as §7

human primary myoblasts [7] = experiment: Western blot, actin protein in differentiating (non-proliferating) human myoblasts; assay type: cell-based; settings: differentiating conditions (no serum), 5 days, doses up to 10 μM
Method: (§10) FIGS. 6A and 6B. No change in FoxM1A protein and no cytotoxicity in non-proliferating myoblasts. Human myoblasts were treated with cpd. 3 (0.1, 1 and 10 μM) for 5 days under differentiating conditions (in the absence of serum), and total protein extracts analyzed by SDS PAGE and Western Blot for FoxM1A and actin protein levels. FIG. 6A, FoxM1A and actin Western blots from samples treated without (control) or with cpd. 3 (0.1, 1 and 10 μM). Note that FoxM1A protein was undetectable; FIG. 6B, Protein levels of actin. Data represent means±SEM of 3 independent observations. Statistical comparison was performed by one-way ANOVA followed by Dunnet's post-hoc test.
(§11) To assess if alternative splicing of FoxM1 towards FoxM1A is present also in cells that are not proliferating, the same human primary myoblasts were differentiated to investigate if FoxM1 expression is also present and can be modulated similarly under those conditions. Under differentiating conditions, FoxM1A was undetectable by Western Blot (FIG. 6A). Treatment with cpd.
as §7

FoxM1A protein [8] = experiment: Western blot, FoxM1A protein in differentiating (non-proliferating) human myoblasts; assay type: cell-based; settings: differentiating conditions (no serum), 5 days, doses up to 10 μM
Method: as §10, §11, §7

FoxM1A protein [9] = experiment: Western blot, FoxM1A protein in proliferating human myoblasts; assay type: cell-based; settings: proliferating conditions (serum), 5 days, highest dose (10 μM)
Method: as §8, §9, §7

CCN1CCC(c2cc(C)c3nc(-c4cc5c(C)nc(C)cn5n4)cc(=O)n3c2)CC1 [Compound 1, 2-(4,6-dimethylpyrazolo[1,5-a]pyrazin-2-yl)-7-(1-ethylpiperidin-4-yl)-9-methyl-4H-pyrido[1,2-a]pyrimidin-4-one]
EC50 (FoxM1B/C mRNA): 724 nM
EC50 (FoxM1A mRNA): 246 nM

CCc1nc(C)cn2nc(-c3cc(=O)n4cc(C5=CCNCC5)cc(C)c4n3)cc12 [Compound 2, 2-(4-ethyl-6-methylpyrazolo[1,5-a]pyrazin-2-yl)-9-methyl-7-(1,2,3,6-tetrahydropyridin-4-yl)-4H-pyrido[1,2-a]pyrimidin-4-one]
Potency in MNT (micronucleus induction) (human fibroblasts [1]): most potent
Reduction of actin protein ([2]; day 1): 18%
Reduction of actin protein ([2]; day 2): more than 90%
EC50 (FoxM1B/C mRNA): 14 nM
Potency in reduction of Cell Index (human fibroblasts [3]): most potent
Increase of FoxM1A protein levels normalized to actin (FoxM1A protein [4]): 28 fold
Effect on FoxM1A protein (FoxM1A protein [4]; day 1): did not have any effect
Increase of FoxM1A protein levels (FoxM1A protein [4]; day 2 (same samples)): ~3 fold
EC50 (FoxM1A mRNA): 16 nM
Potency in cytotoxicity (human fibroblasts [5]): most potent

Cc1cn2nc(-c3cc(=O)n4cc(N5CCN(C)CC5)ccc4n3)cc2c(C)n1 [Compound 3, 2-(4,6-dimethylpyrazolo[1,5-a]pyrazin-2-yl)-7-(4-methylpiperazin-1-yl)-4H-pyrido[1,2-a]pyrimidin-4-one]
EC50 (FoxM1B/C mRNA): 3540 nM
Reduction of actin protein level compared to controls (human primary myoblasts [6]): 6 fold
Actin protein level compared to controls (human primary myoblasts [7]): not altered
FoxM1A levels normalized to actin (FoxM1A protein [8]): undetectable
Increase of FoxM1A protein level normalized to actin (FoxM1A protein [9]): 30 fold
EC50 (FoxM1A mRNA): 1210 nM

Cc1cn2nc(-c3cc(=O)n4cc(N5CCNCC5)ccc4n3)cc2c(C)n1 [Compound 4, 2-(4,6-dimethylpyrazolo[1,5-a]pyrazin-2-yl)-7-(piperazin-1-yl)-4H-pyrido[1,2-a]pyrimidin-4-one]
Potency in MNT (micronucleus induction) (human fibroblasts [1]): most potent
EC50 (FoxM1B/C mRNA): 104 nM
Potency in reduction of Cell Index (human fibroblasts [3]): most potent
EC50 (FoxM1A mRNA): 68 nM
Potency in cytotoxicity (human fibroblasts [5]): most potent
